This is an account of results in patent publication US20160052926A1, “NOVEL PYRIMIDINE AND PYRIDINE COMPOUNDS AND USAGE THEREOF” (HUTCHISON MEDIPHARMA LIMITED, priority 2013, published 2016).

pIC50: −log10 of the molar value.

In one experiment the test system is RT-112. In words: Cellular Proliferation Assay (Cell Counting Kit-8), RT-112. Conditions: Homo sapiens, RT-112 cells, 72 hours. The format is cell-based. The procedure:
Cellular Proliferation Assay
• KG-1 (ATCC Accession No. CCL-246), • SNU-16 (ATCC Accession No. CRL-5974), • RT-112 (ECACC Accession No. 85061106)
• FGFR related cancer cell proliferation is measured in 96-well plates using Cell Counting Kit-8 (Dojindo CK04-13). • Seed 30000 cells/well of KG1, 5000 cells/well of SNU16, and 1000 cells/well of RT112 in a volume of 100 μL/well in growth media. • After 24 hours, dilute the compound to 10, 3.3, 1.1, 0.37, 0.12, 0.04, 0.013, 0.004 μM, keeping the DMSO concentration at 5%. • Add 10 μL of 8-point compound series to the wells of culturing cells. • Incubate at 37° C. and 5% CO2 for 72 hours • Add 10 μL/well of CCkit8 and incubate at 37° C. and 5% CO2 for an hour • Detect the optical density of each well at 450 nm on Labsystems Multiskan K3.
• ODcompound well represents the optical density of cells treated with compound. • ODcell well represents the optical density of cells without compounds treatment. (only 0.5% DMSO) • ODcontrol well represents the optical density of culture media background
The concentration of compound providing 50% of proliferation inhibition was calculated using Excel Fit.

The next experiment deals with KG-1. In words: Cellular Proliferation Assay (Cell Counting Kit-8), KG-1. The format is cell-based. Conditions: Homo sapiens, KG1 cells, 72 hours. An outline of the steps: (§1)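 Seeding was 30,000 (KG-1), 5,000 (SNU-16) or 1,000 (RT-112) cells per well, with compound added 24 h later. Dilutions were prepared as an 8-point series of 10 to 0.004 μM in 5% DMSO, before addition to wells.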

For the next experiment, the system named is SNU-16. The experiment is described as follows: Cellular Proliferation Assay (Cell Counting Kit-8), SNU-16. In kind it is cell-based. Conditions: Homo sapiens, SNU-16 cells, 72 hours. An outline of the steps:
as §1

The next experiment addresses FGFR3 kinase (Homo sapiens, UniProt P22607). The experiment is described as follows: Z-Lyte Kinase Assay of FGFR3. In kind it is biochemical. A digest of the protocol:
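Kinase at 0.7 μg/ml with 4 μM Z-LYTE Tyr 4 peptide and ATP diluted to 300 uM (working solution, 1.33× buffer); compounds 1–0.00046 μM, 2% DMSO final. Kinase reaction and development each 1 h at RT (25-30[…]); coumarin (445 nm) and fluorescein (520 nm) emission read, inhibition from % phosphorylation.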

The target of another experiment is Recombinant human FGFR2 (Homo sapiens, UniProt P21802). In words: Transcreener Kinase Assay of FGFR2. The format is biochemical. Conditions: read-out: FGFR2 (FP) IC50.
Sequence of Recombinant human FGFR2 (P21802 22-821): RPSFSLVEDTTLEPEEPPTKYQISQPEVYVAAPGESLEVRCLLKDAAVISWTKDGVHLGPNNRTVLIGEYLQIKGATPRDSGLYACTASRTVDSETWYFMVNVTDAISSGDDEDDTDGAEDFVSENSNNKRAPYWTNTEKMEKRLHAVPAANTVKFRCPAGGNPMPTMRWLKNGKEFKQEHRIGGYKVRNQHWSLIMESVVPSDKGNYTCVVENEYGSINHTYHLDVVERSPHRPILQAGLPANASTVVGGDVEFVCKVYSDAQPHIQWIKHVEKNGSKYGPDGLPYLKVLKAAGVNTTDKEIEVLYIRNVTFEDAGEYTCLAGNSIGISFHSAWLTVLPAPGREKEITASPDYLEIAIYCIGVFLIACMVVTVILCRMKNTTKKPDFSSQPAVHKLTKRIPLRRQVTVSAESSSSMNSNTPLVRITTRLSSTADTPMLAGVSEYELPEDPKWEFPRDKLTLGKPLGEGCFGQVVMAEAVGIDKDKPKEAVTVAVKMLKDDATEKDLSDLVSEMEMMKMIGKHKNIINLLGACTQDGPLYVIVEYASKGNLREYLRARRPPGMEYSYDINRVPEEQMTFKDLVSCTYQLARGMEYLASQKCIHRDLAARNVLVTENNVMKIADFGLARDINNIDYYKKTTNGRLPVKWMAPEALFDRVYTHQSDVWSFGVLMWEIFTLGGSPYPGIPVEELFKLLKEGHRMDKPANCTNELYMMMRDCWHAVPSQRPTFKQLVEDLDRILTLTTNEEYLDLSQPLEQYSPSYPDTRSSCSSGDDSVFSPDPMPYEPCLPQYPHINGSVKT
For a further experiment, the target named is Recombinant human FGFR1 (Homo sapiens, UniProt P11362). The experiment is described as follows: Transcreener Kinase Assay of FGFR1. In kind it is biochemical. Conditions: read-out: FGFR1 (FP) IC50.
Sequence of Recombinant human FGFR1 (P11362 22-822): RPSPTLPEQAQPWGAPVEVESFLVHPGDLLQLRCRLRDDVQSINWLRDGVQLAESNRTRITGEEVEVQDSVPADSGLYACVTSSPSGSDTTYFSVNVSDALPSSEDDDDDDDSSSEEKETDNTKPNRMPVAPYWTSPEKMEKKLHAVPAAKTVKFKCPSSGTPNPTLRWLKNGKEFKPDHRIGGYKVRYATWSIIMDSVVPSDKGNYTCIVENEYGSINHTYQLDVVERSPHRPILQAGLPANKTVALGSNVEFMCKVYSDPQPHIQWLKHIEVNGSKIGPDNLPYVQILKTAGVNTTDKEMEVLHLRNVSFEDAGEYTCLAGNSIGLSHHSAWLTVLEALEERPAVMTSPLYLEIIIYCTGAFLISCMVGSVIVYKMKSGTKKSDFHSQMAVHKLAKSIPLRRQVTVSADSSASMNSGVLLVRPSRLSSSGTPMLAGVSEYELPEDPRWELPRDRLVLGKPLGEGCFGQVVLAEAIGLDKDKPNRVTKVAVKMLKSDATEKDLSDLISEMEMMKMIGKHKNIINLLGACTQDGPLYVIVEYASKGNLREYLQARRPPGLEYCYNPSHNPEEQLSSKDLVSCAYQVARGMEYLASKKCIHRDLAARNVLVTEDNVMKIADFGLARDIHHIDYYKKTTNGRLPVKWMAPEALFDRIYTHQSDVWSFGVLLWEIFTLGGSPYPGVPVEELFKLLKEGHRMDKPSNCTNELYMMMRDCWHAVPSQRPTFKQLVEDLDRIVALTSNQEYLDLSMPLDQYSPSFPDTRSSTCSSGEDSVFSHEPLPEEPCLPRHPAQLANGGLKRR

Sequence of FGFR3 kinase (P22607 23-806): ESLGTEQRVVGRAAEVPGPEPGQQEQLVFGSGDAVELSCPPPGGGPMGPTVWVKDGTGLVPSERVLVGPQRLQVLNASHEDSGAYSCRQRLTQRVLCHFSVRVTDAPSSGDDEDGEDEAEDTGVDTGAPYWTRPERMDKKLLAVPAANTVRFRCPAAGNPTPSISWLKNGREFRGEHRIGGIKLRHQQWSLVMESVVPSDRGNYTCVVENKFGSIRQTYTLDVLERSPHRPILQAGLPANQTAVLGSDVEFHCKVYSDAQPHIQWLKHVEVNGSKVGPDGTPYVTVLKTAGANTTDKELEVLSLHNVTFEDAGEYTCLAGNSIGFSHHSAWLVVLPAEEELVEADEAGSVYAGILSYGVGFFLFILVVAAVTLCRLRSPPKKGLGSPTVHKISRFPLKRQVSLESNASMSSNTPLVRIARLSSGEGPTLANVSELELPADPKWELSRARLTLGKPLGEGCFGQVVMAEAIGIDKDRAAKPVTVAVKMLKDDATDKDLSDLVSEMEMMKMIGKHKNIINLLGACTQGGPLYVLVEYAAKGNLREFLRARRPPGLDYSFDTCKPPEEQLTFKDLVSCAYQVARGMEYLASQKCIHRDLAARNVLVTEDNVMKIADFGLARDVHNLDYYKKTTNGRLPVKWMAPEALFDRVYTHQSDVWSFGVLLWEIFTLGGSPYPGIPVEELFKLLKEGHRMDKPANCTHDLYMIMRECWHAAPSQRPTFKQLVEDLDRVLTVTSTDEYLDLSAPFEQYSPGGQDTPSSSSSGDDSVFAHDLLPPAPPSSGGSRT

Consider `CCN1CCN(c2ccc(Nc3ncc(CCc4cc(C(=O)NC)cc(OC)c4C)cn3)cc2)CC1` [Compound 39], for which the negative logarithm of the IC50 (pIC50) in the experiment with RT-112 was 6.47; with KG-1, 7.31; with SNU-16, 7.15; at FGFR3 kinase, 7.37; on Recombinant human FGFR2, 7.39; on Recombinant human FGFR1 it was 7.37.

`CCN1CCN(c2ccc(Nc3ncc(CCc4cc(C(=O)NC)cc(OC)c4F)cn3)cc2)CC1` [Compound 44]: the pIC50 was 7.29 in the experiment on RT-112; 8.05 with KG-1; 7.82 in the experiment on SNU-16; 8.05 on FGFR3 kinase; 8.40 on Recombinant human FGFR2; 8.30 at Recombinant human FGFR1.

With `CNC(=O)c1cc(CCc2cnc(Nc3cnn(CCN4CCN(C)CC4)c3)nc2)c(F)c(OC)c1` [Compound 45], the pIC50 in the experiment with RT-112 was 7.03; in the experiment on KG-1, 6.41; in the experiment with SNU-16, 7.47; on FGFR3 kinase it was 8.00; at Recombinant human FGFR2 it was 8.15; on Recombinant human FGFR1, 7.85.

In the case of `CONC(=O)c1cc(CCc2cnc(Nc3ccc(N4C[C@@H](C)N[C@@H](C)C4)c(C)c3)nc2)cc(OC)c1` [Compound 49], the pIC50 was 7.21 in the experiment with RT-112; 7.12 with KG-1; 7.74 in the experiment with SNU-16; 8.10 against FGFR3 kinase; 8.30 on Recombinant human FGFR2; 8.22 on Recombinant human FGFR1.

For the molecule `CCONC(=O)c1cc(CCc2cnc(Nc3ccc(N4CCN(CC)CC4)cc3)nc2)cc(OC)c1` [Compound 50], the pIC50 is 6.45 in the experiment with RT-112; 7.35 in the experiment with KG-1; 6.88 with SNU-16; 7.54 against FGFR3 kinase; 7.82 at Recombinant human FGFR2; 7.85 at Recombinant human FGFR1.

On to `CCN1CCN(c2ccc(Nc3ncc(CCc4cc(C(=O)NC)cc(OC)c4F)cn3)cc2)C[C@H]1C` [Compound 53], for which the pIC50 is 7.31 in the experiment with RT-112; 7.85 with KG-1; 7.72 in the experiment on SNU-16; 8.10 on FGFR3 kinase; 8.40 at Recombinant human FGFR2; 8.30 on Recombinant human FGFR1.

Consider `CONC(=O)c1cc(CCc2cnc(Nc3ccc(N4C[C@@H](C)N[C@@H](C)C4)c(F)c3)nc2)cc(OC)c1` [Compound 54], for which the pIC50 is 7.51 with RT-112; 7.74 in the experiment with KG-1; 8.00 in the experiment on SNU-16; 8.22 on FGFR3 kinase; 8.52 on Recombinant human FGFR2; 8.22 on Recombinant human FGFR1.

Turning to `CCN1CCN(c2ccc(Nc3ncc(CCc4cc(C(=O)NOC)cc(OC)c4F)cn3)cc2)CC1` [Compound 55], the pIC50 with RT-112 was 7.80; in the experiment with KG-1, 8.52; in the experiment on SNU-16 it was 8.40; on FGFR3 kinase it was 8.70; on Recombinant human FGFR2 it was 8.52; on Recombinant human FGFR1 it was 8.70.

As for `CNC(=O)c1cc(CCc2cnc(Nc3ccnc(C)c3)nc2)c(F)c(OC)c1` [Compound 60, 4-fluoro-3-methoxy-N-methyl-5-(2-(2-((2-methylpyridin-4-yl)amino)pyrimidin-5-yl)ethyl)benzamide], the pIC50 is 6.86 in the experiment on RT-112; 7.29 with KG-1; 7.34 in the experiment on SNU-16; 7.64 on FGFR3 kinase; 8.15 on Recombinant human FGFR2; 7.80 at Recombinant human FGFR1.

Take `CNC(=O)c1cc(CCc2cnc(Nc3ccnc(OC)c3)nc2)c(F)c(OC)c1` [Compound 62]: the pIC50 in the experiment on RT-112 was 6.82; in the experiment on KG-1 it was 7.34; in the experiment with SNU-16, 7.31; against FGFR3 kinase it was 7.48; on Recombinant human FGFR2 it was 8.05; on Recombinant human FGFR1, 7.70.

Regarding `CNC(=O)c1cc(CCc2cnc(Nc3cccnc3OC)nc2)c(F)c(OC)c1` [Compound 63], the negative-log IC50 (pIC50) in the experiment on RT-112 is 6.05; in the experiment with KG-1, 6.37; in the experiment with SNU-16 it was 6.38; against FGFR3 kinase, 6.61; at Recombinant human FGFR2 it was 7.57; on Recombinant human FGFR1, 6.71.

Take `CONC(=O)c1cc(CCc2cnc(Nc3ccc4nccn4c3)nc2)cc(OC)c1` [Compound 65]: the pIC50 in the experiment with RT-112 was 6.53; with KG-1, 6.69; in the experiment on SNU-16, 7.26; on FGFR3 kinase it was 6.95; on Recombinant human FGFR2 it was 7.55; at Recombinant human FGFR1, 7.32.

On to `CNC(=O)c1cc(CCc2cnc(Nc3ccn4ccnc4c3)nc2)c(F)c(OC)c1` [Compound 66], for which the pIC50 in the experiment with RT-112 is 6.70; in the experiment with KG-1 it was 6.71; in the experiment with SNU-16, 7.26; against FGFR3 kinase it was 7.60; on Recombinant human FGFR2, 8.15; on Recombinant human FGFR1 it was 7.74.

Regarding `CNC(=O)c1cc(CCc2cnc(Nc3ccc4nncn4c3)nc2)c(F)c(OC)c1` [Compound 67], the pIC50 in the experiment with RT-112 is 6.58; in the experiment with KG-1 it was 7.05; in the experiment on SNU-16, 7.15; against FGFR3 kinase it was 7.36; on Recombinant human FGFR2, 7.57; on Recombinant human FGFR1, 7.43.

Regarding `CNC(=O)c1cc(CCc2cnc(Nc3ccc4nnc(C)n4c3)nc2)c(F)c(OC)c1` [Compound 69], the pIC50 in the experiment on RT-112 is 6.47; in the experiment on KG-1, 6.57; in the experiment with SNU-16 it was 7.07; on FGFR3 kinase, 7.38; on Recombinant human FGFR2, 7.70; on Recombinant human FGFR1, 7.38.

For the molecule `CNC(=O)c1cc(CCc2cnc(Nc3nc(C4CC4)cs3)nc2)c(Cl)c(OC)c1` [Compound 71], the negative-log IC50 (pIC50) was 7.00 with RT-112; 6.40 with KG-1; 6.15 in the experiment on SNU-16; 6.23 against FGFR3 kinase; 7.28 at Recombinant human FGFR2; 6.90 on Recombinant human FGFR1.

As to `CNC(=O)c1cc(CCc2cnc(Nc3ccc4nnc(COC)n4c3)nc2)c(F)c(OC)c1` [Compound 72], the pIC50 in the experiment on RT-112 was 6.26; with KG-1 it was 6.71; with SNU-16, 7.03; against FGFR3 kinase, 7.42; on Recombinant human FGFR2 it was 7.62; on Recombinant human FGFR1, 7.24.

For `CCN1CCN(c2cc(Nc3ncc(CCc4cc(OC)cc(C(=O)NOC)c4)cn3)ccn2)CC1` [Compound 76], the pIC50 in the experiment on RT-112 is 7.17; in the experiment on KG-1, 7.37; with SNU-16, 7.80; at FGFR3 kinase, 8.10; at Recombinant human FGFR2 it was 8.40; at Recombinant human FGFR1, 8.30.

Consider `CNC(=O)c1cc(CCc2cnc(Nc3ccc(N4C[C@@H](C)N[C@@H](C)C4)cc3)nc2)c(Cl)c(OC)c1` [Compound 79, 4-chloro-3-(2-(2-((4-((3S,5R)-3,5-dimethylpiperazin-1-yl)phenyl)amino)pyrimidin-5-yl)ethyl)-5-methoxy-N-methylbenzamide], for which the pIC50 in the experiment on RT-112 was 7.47; in the experiment on KG-1 it was 7.89; with SNU-16, 7.85; against FGFR3 kinase, 8.22; at Recombinant human FGFR2 it was 8.22; on Recombinant human FGFR1, 8.22.

On to `CCn1cc(Nc2ncc(CCc3c(F)c(C(=O)NC)cc(OC)c3Cl)cn2)cn1` [Compound 80], for which the pIC50 was 7.62 in the experiment on RT-112; 7.48 with KG-1; 7.41 in the experiment with SNU-16; 7.72 at FGFR3 kinase; 7.80 on Recombinant human FGFR2; 7.62 at Recombinant human FGFR1.

As to `CNC(=O)c1cc(CCc2cnc(Nc3cnn(C4CCC4)c3)nc2)c(Cl)c(OC)c1` [Compound 81], the negative logarithm of the IC50 (pIC50) with RT-112 was 8.00; in the experiment on KG-1, 7.80; in the experiment with SNU-16, 7.60; against FGFR3 kinase, 7.96; on Recombinant human FGFR2 it was 8.30; at Recombinant human FGFR1 it was 8.10.

Consider `CCn1cc(Nc2ncc(CCc3cc(C(=O)NC)cc(OC)c3Br)cn2)cn1` [Compound 83], for which the pIC50 is 6.70 in the experiment with RT-112; 7.28 in the experiment on KG-1; 7.26 in the experiment with SNU-16; 7.46 against FGFR3 kinase; 8.05 at Recombinant human FGFR2; 7.82 on Recombinant human FGFR1.

`CNC(=O)c1cc(CCc2cnc(Nc3ccc4c(C)n(C)nc4c3)nc2)c(Cl)c(OC)c1` [Compound 84]: the pIC50 in the experiment with RT-112 is 6.91; in the experiment with KG-1, 6.61; with SNU-16, 6.62; against FGFR3 kinase it was 7.80; on Recombinant human FGFR2 it was 8.15; on Recombinant human FGFR1, 7.72.

Regarding `CNC(=O)c1cc(CCc2cnc(Nc3ccc(N4CCOCC4)cc3)nc2)c(Cl)c(OC)c1` [Compound 85], the pIC50 is 7.59 in the experiment with RT-112; 7.52 with KG-1; 7.03 with SNU-16; 7.77 at FGFR3 kinase; 8.05 on Recombinant human FGFR2; 7.82 on Recombinant human FGFR1.
